“And” between values parts separate entries of the source, which are not always exact repeats. Identical values can stand only once. Non-standard residues stand in square brackets, D forms with d. Residues, ends and D or L forms follow the SMILES beside them. dPhe(4-Cl) = N[C@H](Cc1ccc(Cl)cc1)C(=O)O; d2Nal = N[C@H](Cc1ccc2ccccc2c1)C(=O)O; dCit = NC(=O)NCCC[C@@H](N)C(=O)O; d3Pal = N[C@H](Cc1cccnc1)C(=O)O

Series [1] is described as follows: Rat muscle experiment: cetrorelix content in the plasma. It counts as in vivo. An excerpt:
(§1) In the further rat muscle experiments shown in Table 9, in addition to the residual content in the muscle, the cetrorelix content in the plasma was additionally determined.

A short description of series [2]: Rat animal experiment: cetrorelix residual content in the muscle 168 h after injection. It counts as in vivo. As to conditions: rat. The procedure:
(§2) After reconstitution of these lyophilizates, the solutions (2.5 mg/ml of cetrorelix) are investgated in the following tests for aggregate formation and release behaviour: • Polarization microscopy (pol. mic.): days without aggregation. • Filterability in %: • Cetrorelix solutions are prepared according to a standardized procedure and filtered through 0.22 μm or 0.45 μm filters by means of centrifugation. The concentration of cetrorelix in the filtrate is determined by HPLC and indicated as a % value, based on the starting concentration before filtration (filterability in %). • in-vitro release form (RRS, release in Ringer's solution): • % released after 1 h and after 6 h. • The in-vitro release behaviour is determined at 37° C. in a flow procedure using Ringer's solution as medium. The concentration measurement is carried out by HPLC. Cetrorelix samples, corresponding to 10 mg of cetrorelix base, are weighed into the flow cell, mixed with 4 ml of water and stirred for 10 min.
as §1

Series [3] in a line: In-vitro release in Ringer's solution (RRS), flow procedure at 37° C. Format: physicochemical. The procedure:
as §2, with “([…])” for “(2.5 mg/ml of cetrorelix)”

The nature of series [4]: Polarization microscopy: aggregation of cetrorelix solutions (days without aggregation). It counts as physicochemical. As to the method: By means of polarization microscopy, aggregation investigations were carried out on solutions of various cetrorelix salts without or with addition of excipients.
In the polarization light microscope with crossed polarizers, aggregated peptide solutions show images which are very similar to those of liquid-crystalline structures. In contrast to this, aggregate-free peptide solutions produce no such effects.
as §2, with “([…])” for “(2.5 mg/ml of cetrorelix)”

Setting [5] is: dose 1.5 mg/kg, inj. soln 3 mg/ml.
Where [6] appears, read: conc. of cetrorelix from lyo 15 mg/ml.
Where [7] appears, read: conc. of cetrorelix from lyo 2.5 mg/ml.

With `CC(=O)N[C@H](Cc1ccc2ccccc2c1)C(=O)N[C@H](Cc1ccc(Cl)cc1)C(=O)N[C@H](Cc1cccnc1)C(=O)N[C@@H](CO)C(=O)N[C@@H](Cc1ccc(O)cc1)C(=O)N[C@H](CCCNC(N)=O)C(=O)N[C@@H](CC(C)C)C(=O)N[C@@H](CCCNC(=N)N)C(=O)N1CCC[C@H]1C(=O)N[C@H](C)C(N)=O` [Base, cetrorelix] (Ac-[d2Nal][dPhe(4-Cl)][d3Pal]SY[dCit]LRP[dA]-NH2), in series [1] (setting [5]), the “Cetrorelix content in the plasma, % of the dose” value was 122.2 % of the dose. For the same molecule, the “Cetrorelix content in the muscle (168 h), % of the dose” value in series [2] (setting [5]) is recorded as 27.2 % of the dose.
As to Citrate, in series [3] (setting [6]), the “RRS, [%] after 1 h” value was 9% and the “RRS, [%] after 6 h” value was determined as 20.3%.
Turning to Lactate, in series [3] (bulk), the “RRS, [%] after 1 h” value was 20% and the “RRS, [%] after 6 h” value is 55.2%.
With Phosphate, the “Cetrorelix content in the plasma, % of the dose” value in series [1] (in vivo, 1.5 mg/kg) is 22.6 % of the dose. For the same molecule, in series [2] (in vivo, 1.5 mg/kg), the “Cetrorelix content in the muscle (168 h), % of the dose” value is 32.9 % of the dose.
cetrorelix gluconate: the Days without aggregation in series [4] (2.5 mg/ml cetrorelix gluconate, hydroxypropyl-β-cyclodextrin 20%) is on record as 189 days; in series [4] (2.5 mg/ml cetrorelix gluconate, hydroxypropyl-β-cyclodextrin […]) it was 91 days; in series [4] (2.5 mg/ml cetrorelix gluconate, α-cyclodextrin 5%), 1 days; in series [4] (2.5 mg/ml cetrorelix gluconate, α-cyclodextrin 10%), 140 days; in series [4] (2.5 mg/ml cetrorelix gluconate, γ-cyclodextrin 20%) it was 182 days; in series [4] (2.5 mg/ml cetrorelix gluconate, γ-cyclodextrin […]), 126 days. In addition, the Days without aggregation was above 30 days in series [4] (cetrorelix 2.5 mg/ml, gluconic acid addition: yes, pH 3.0); 1 days in series [4] (cetrorelix 5 mg/ml, gluconic acid addition: no, pH 4.7); 1 days in series [4] (cetrorelix 5 mg/ml, gluconic acid addition: no, pH 4.8); 4 days in series [4] (cetrorelix 5 mg/ml, gluconic acid addition: yes, pH 3.6); 4 days in series [4] (cetrorelix 5 mg/ml, gluconic acid addition: yes, pH 3.8); 0 days in series [4] (cetrorelix 7.5 mg/ml, gluconic acid addition: no, pH 4.7). Further, the Days without aggregation in series [4] (cetrorelix 7.5 mg/ml, gluconic acid addition: no, pH 4.8) was 0 days; in series [4] (cetrorelix 7.5 mg/ml, gluconic acid addition: yes, pH 3.4) it was 1 days; in series [4] (cetrorelix 7.5 mg/ml, gluconic acid addition: yes, pH 3.7), 1 days. Moreover, the “RRS, [%] after 1 h” value in series [3] (setting [7]) is 18% and 11.3%. Further, in series [3] (setting [7]), the “RRS, [%] after 6 h” value is 45.3% and 46%. Also, in series [1] (in vivo, 1.5 mg/kg), the “Cetrorelix content in the plasma, % of the dose” value is 46.9 % of the dose. In addition, the “Cetrorelix content in the muscle (168 h), % of the dose” value in series [2] (in vivo, 1.5 mg/kg) is listed as 37.9 % of the dose.
On to cetrorelix glucuronate, for which the Days without aggregation is recorded as 3 days in series [4] (glucuronate salt, cetrorelix 2.5 mg/ml, glucuronic acid addition: no, pH 4.5); above 30 days in series [4] (glucuronate salt, cetrorelix 2.5 mg/ml, glucuronic acid addition: yes, pH 2.9); 0 days in series [4] (glucuronate salt, cetrorelix 5 mg/ml, glucuronic acid addition: no, pH 4.6); above 30 days in series [4] (glucuronate salt, cetrorelix 5 mg/ml, glucuronic acid addition: yes, pH 2.7). For the same molecule, the “Cetrorelix content in the plasma, % of the dose” value in series [1] (in vivo, 1.5 mg/kg) is 78.6 % of the dose. In addition, the “Cetrorelix content in the muscle (168 h), % of the dose” value in series [2] (in vivo, 1.5 mg/kg) is on record as 16.5 % of the dose; in series [2] (in vivo, 3 mg/kg), 18.8 % of the dose.

The values are drawn from patent US7696149B2, “Pharmaceutical administration form for peptides, process for its preparation, and use” (AEterna Zentaris GmbH, priority 2000, dated 2010).
